Test results: ChEMBL document CHEMBL1137977, “HCV NS5B polymerase-bound conformation of a soluble sulfonamide inhibitor by 2D transferred NOESY” (Bioorg Med Chem Lett, 2004)

Molecular target: RNA-directed RNA polymerase (Hepacivirus hominis, UniProt O39930)
Assay: Inhibitory concentration for NS5B RNA-dependent RNA polymerase of Hepatitis C virus

RNA-directed RNA polymerase, sequence (O39930 whole entry): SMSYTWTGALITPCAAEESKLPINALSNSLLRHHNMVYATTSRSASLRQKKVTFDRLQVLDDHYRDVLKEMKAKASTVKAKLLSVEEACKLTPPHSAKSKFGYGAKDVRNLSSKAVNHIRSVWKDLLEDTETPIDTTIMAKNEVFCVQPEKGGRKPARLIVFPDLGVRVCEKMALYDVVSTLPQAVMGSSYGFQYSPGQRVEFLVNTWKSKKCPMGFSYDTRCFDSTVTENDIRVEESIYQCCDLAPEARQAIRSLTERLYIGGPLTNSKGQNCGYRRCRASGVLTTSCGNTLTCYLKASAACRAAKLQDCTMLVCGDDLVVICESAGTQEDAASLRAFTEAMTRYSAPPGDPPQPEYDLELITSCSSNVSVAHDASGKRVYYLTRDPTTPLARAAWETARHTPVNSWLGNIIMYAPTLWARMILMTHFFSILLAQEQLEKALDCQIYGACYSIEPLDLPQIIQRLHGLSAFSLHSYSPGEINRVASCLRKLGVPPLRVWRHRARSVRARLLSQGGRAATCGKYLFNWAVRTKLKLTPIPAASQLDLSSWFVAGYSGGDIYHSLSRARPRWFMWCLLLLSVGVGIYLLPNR

Row | SMILES | IC50 [µM]
1 | O=C(O)c1sc(-c2ccccc2)cc1NS(=O)(=O)c1ccc(C(F)(F)F)cn1 | 15
2 | Cc1cc(S(=O)(=O)Nc2cc(-c3ccccc3)sc2C(=O)O)c(C)cc1Cl | 5
3 | Cc1cc(S(=O)(=O)Nc2cc(-c3ccccc3)sc2C(N)=O)c(C)cc1Cl | 14
4 | Cc1ccccc1S(=O)(=O)Nc1cc(-c2ccncc2)sc1C(=O)O | 4
5 | O=C(O)c1sc(-c2ccc(F)cc2)cc1NS(=O)(=O)c1ccccn1 | 4
6 | O=C(O)c1sc(-c2ccccc2)cc1NS(=O)(=O)c1ccccn1 | 25
